Reference: PubChem BioAssay (NCI)
Where “and” joins values, the source holds several entries; their conditions need not be identical. Identical values can stand only once.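 How tested: cells in 96-well plates exposed to compound for 48 hours at five concentrations. GI50 = concentration required for 50% inhibition of growth. At the TGI there is no net growth.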

Assays:
Experiment in all cases: inhibition of tumour cell growth, NCI panel, 48 h
[1] = test system: SNB-75 CNS
[2] = test system: HOP-62 NSCLC
[3] = test system: MALME-3M melanoma
[4] = test system: SF-539 CNS
[5] = test system: RPMI-8226 leukemia
[6] = test system: KM12 colon
[7] = test system: OVCAR-8 ovarian
[8] = test system: UACC-62 melanoma
[9] = test system: MDA-MB-435
[10] = test system: MDA-MB-231 breast

Structure (SMILES)	TGI [1]	TGI [2] [µM]	TGI [3] [µM]	TGI [4] [µM]	TGI [5] [µM]	TGI [6] [µM]	TGI [7] [µM]	TGI [8] [µM]	TGI [9] [µM]	TGI [10] [µM]	GI50 [1]	GI50 [3]	GI50 [4] [µM]	GI50 [6]	GI50 [8]	GI50 [9]	GI50 [2]	GI50 [5]	GI50 [7]
O=C1CS[C@@](CC(c2ccc(Cl)cc2)c2ccc(Cl)cc2)(c2ccc(Cl)cc2)N1	> 100 µM	82	82.6	64.4	35.6	> 100	> 100	63.1	> 100	–	–	–	–	–	–	–	–	–	–
CCOc1ccc(/C=C2\NC(=S)N(/C=C3\C(=O)Oc4ccccc4C3=O)C2=O)cc1	61.6 µM	61.9	–	36.5	–	69.2	36.7	37.9	78.3	50.7	–	–	–	–	–	–	–	–	–
Cc1c2ccccc2c(C)n2c1nc1ccccc12	27.7 µM	36	23.5	18.6	> 100	23.3	> 100	23.5	19.1	–	–	–	–	–	–	–	–	–	–
O=C1/C(=C/c2ccccc2)NC(=S)N1CN1CCCCC1	> 100 µM	> 100	–	–	> 100	> 100	> 100	> 100	> 100	> 100	–	–	–	–	–	–	–	–	–
CNC(=S)NNc1ncnc2c1ncn2-c1ccc(C)cc1	–	> 100	> 100	> 100	> 100	> 100	> 100	> 100	> 100	> 100	–	–	–	–	–	–	–	–	–
COc1c2ccsc2c(OC)c2ccsc12	> 100 µM	> 100	> 100	> 100	–	> 100	> 100	> 100	> 100	> 100	–	–	–	–	–	–	–	–	–
Cc1ccc(S(=O)(=O)N/N=C2/CCC(C(C)(C)C)CC2Br)cc1 (stereo not drawn)	87 µM	> 100	31.2	50.4	82.3	47	> 100	–	51.8	> 100	–	–	–	–	–	–	–	–	–
O=[N+]([O-])c1cccc(Cl)c1Oc1ccc(S(=O)(=O)/N=C(\NO)Nc2ccc(Cl)cc2)cc1	–	45.4	31.2	28.1	27.8	31.2	39.6	25.5	29.2	47.6	–	–	–	–	–	–	–	–	–
C[n+]1c2ccccc2c(/C=N\NS(=O)(=O)c2ccc(Cl)cc2)c2ccccc21	> 100 µM	> 100	> 100	> 100	> 100	> 100	> 100	> 100	–	–	–	–	–	–	–	–	–	–	–
Clc1ccc(C2CC(c3cccc(Nc4ccncc4)c3)=NN2c2cc(Cl)cc(Cl)c2)cc1 (stereo not drawn)	2.93 µM	–	3.68	3.2	–	3.38	–	3.29	3.16	–	1.4 µM	1.77 µM	1.69	1.79 µM	1.77 µM	1.71 µM	–	–	–
Cc1ccc2c(C(=O)c3c(C)n(CCN4CCOCC4)c4ccccc34)cccc2c1	–	99.6	37.6	12.8	18.6	57.7	56.1	45.2	5.42	47.9	–	–	–	–	–	–	–	–	–
NC(=Nc1ccccc1)c1ccccc1N	> 100 µM	> 100	–	–	> 100	> 100	> 100	> 100	> 100	> 100	–	–	–	–	–	–	–	–	–
Cc1c(O)c(OC2OC(CO)C(O)C(O)C2O)cc2c1C=C[C@@H]1[C@@]2(C)C(=O)C[C@]2(C)[C@@H]([C@@](C)(O)C(=O)CCC(C)(C)O)[C@H](O)C[C@@]12C (stereo partly drawn)	62.9 µM	> 100	50	43.9	–	66.6	> 100	33.5	66.5	47.7	–	–	–	–	–	–	–	–	–
COc1ccc([C@]23CCN4COC[C@@H]([C@H]42)C2(CC3)OCC(C)(C)CO2)cc1OC	> 100 µM	> 100	> 100	–	> 100	> 100	> 100	> 100	> 100	> 100	–	–	–	–	–	–	–	–	–
CC(=O)NC1(C(=O)N[C@@H](Cc2ccccc2)C(=O)NC2CCCCC2)Cc2ccc3ccccc3c2-c2c(ccc3ccccc23)C1	> 100 µM and 36.6 µM	> 100	> 100	–	> 100	> 100	> 100	> 100	> 100	–	7.84 µM and 1.43 µM	5 µM and 19.4 µM	–	2.89 µM and 6.88 µM	6.22 µM and 12.7 µM	3.74 µM and 9.85 µM	12.2 µM and 57.3 µM	3.31 µM and 13.9 µM	8.67 µM and 33.2 µM
COC([C@@H](OC(=O)c1ccccc1)[C@H](OC(=O)c1ccccc1)C(O)COC(=O)c1ccccc1)n1cc(C)c(=O)[nH]c1=O (stereo partly drawn)	73.8 µM	> 100	91.7	–	> 100	–	> 100	56.3	> 100	> 100	–	–	–	–	–	–	–	–	–
N[C@H](CCC(=O)NCP(=O)(O)O)C(=O)O	–	> 100	> 100	> 100	> 100	> 100	> 100	> 100	> 100	> 100	–	–	–	–	–	–	–	–	–
CCCCCCCCCCCCCCCCCC(=O)Nc1ccn(C2CCC(COP(=O)(O)O)O2)c(=O)n1 (stereo not drawn)	> 100 µM	> 100	–	> 100	> 100	> 100	> 100	> 100	> 100	> 100	–	–	–	–	–	–	–	–	–
Nc1ccc2ccc(-c3ccc[nH]3)nc2n1	> 100 µM	> 100	> 100	> 100	> 100	> 100	> 100	–	> 100	> 100	–	–	–	–	–	–	–	–	–
COP(=O)(O)C(N)Cc1c[nH]c2ccccc12 (stereo not drawn)	–	> 100	–	–	> 100	–	> 100	–	> 100	> 100	–	–	–	–	–	–	–	–	–
Cc1cc(N2CCCC2)c([N+](=O)[O-])cc1[N+](=O)[O-]	> 100 µM	–	> 100	> 100	> 100	> 100	> 100	> 100	> 100	> 100	–	–	–	–	–	–	–	–	–
O=C(O)CNC(=O)c1ccc2cc(C(=O)N3CC(CCl)c4ccc([N+](=O)[O-])cc43)[nH]c2c1 (stereo not drawn)	> 100 µM	–	–	> 100	> 100	> 100	> 100	> 100	> 100	> 100	–	–	–	–	–	–	–	–	–
